Measurements published in paper PMC11111404, “Discovery of potent small-molecule inhibitors of lipoprotein(a) formation” (Nature, 2024).
Where “and” joins values, the source holds several entries; their conditions need not be identical. Equal values may be shown once.

Experiments:
[1] = target: T1, Lp(a) assembly (recombinant human 16K apo(a) and apoB) (Homo sapiens, UniProt P08519); test: In vitro Lp(a) assembly assay; assay type: biochemical
T1 construct: containing one KIV type 1, six KIV type 2 repeats, one each of KIV types 3–10 and one KV; expressed in transfected cells; host or cells: Conditioned medium of HEK293 (CRL-1573) stably expressing 16K apo(a), combined with conditioned medium of wild-type HepG2 (HB-8065) for endogenous apoB
Method: HepG2 cells (HB-8065, ATCC) were cultured in Dulbecco’s modified Eagle’s medium, supplemented with 10% fetal bovine serum, 20 mM 4-(2-hydroxyethyl)-1-piperazineethanesulfonic acid (HEPES) and 100 U ml^−1 penicillin–streptomycin. apoB-conditioned media were collected after 24 h of culture at 37 °C and 5% CO2 from confluent wild-type HepG2 cells that endogenously express and secrete apoB. Apo(a)-conditioned media were collected after 24 h of culture at 37 °C and 5% CO2 from HEK293 cells (CRL-1573, ATCC) that stably express and secrete recombinant human 16K apo(a) protein containing one KIV type 1, six KIV type 2 repeats, one each of KIV types 3–10 and one KV.
The assembly assay was conducted in 96-well polypropylene plates by combining HepG2 and apo(a)-HEK293-conditioned media in the presence of a range of compound concentrations. After a two-hour incubation period at 37 °C, the reaction was stopped by the addition of 6-aminocaproic acid. Lp(a) was detected using a sandwich enzyme-linked immunosorbent assay (ELISA), with a polyclonal goat anti-apo(a) capture antibody (Abcam ab31675) and a biotin-conjugated, polyclonal goat anti-apoB detection antibody (Abcam ab20898). In brief, ELISA plates were coated with 100 μl of the capture antibody at a 1:12,500 dilution (around 4 μg ml^−1) into HEPES-buffered saline (HBS), incubated overnight at 4 °C, washed and blocked by the addition of 200 μl of 1% casein. After removal of the blocking buffer, 20 μl of each of the assembly reactions or of a dilution series of purified human Lp(a) (Athens Research, 12-16-121601), diluted 1:5 into HBS supplemented with 0.5% casein, were added to the ELISA plate. […] Absorbance at 450 nm was measured on an Envision plate reader.
The concentration of Lp(a) formed in each test condition was determined on the basis of the standard curve constructed from the purified human Lp(a) used as a reference standard, and was normalized to high (buffer) and low (no apoB) controls. […] Data were analysed in GraphPad Prism v.9.5.1.

plasminogen = target: T2, plasminogen (Rattus norvegicus, UniProt Q01177); test: Rat plasma plasminogen concentration (ELISA) after oral dosing; assay type: in vivo; conditions: for PLG mass, Plasminogen (mean of replicates) / PLG mass, Replicate 1 / PLG mass, Replicate 2: rat plasma, individual animal
T2 construct: Plasma samples were collected via the abdominal aorta; from tissue; host or cells: Citrated plasma of orally dosed male Sprague Dawley rats
Method: Male Sprague Dawley rats (Charles River, average body weight 310 g, aged eight to nine weeks old) were housed in cages with a standard light cycle (12-h light, 12-h dark), at room temperature (22 ± 4 °C), with a relative humidity of 30–70%. Rats were identified by numbers on the cage cards. After arrival, rats were fed on a normal diet (Harlan Teklad diet 2014) and randomized to treatment groups (n = 5 per group) by baseline plasma plasminogen concentration and activity using a BRAT. LSN3441732 and LY3473329 were administered QD orally at three dose levels (3.7, 12.3 and 37 mg kg^−1; 3.2, 10.5 and 31.6 mg kg^−1 per dose, respectively) or vehicle (10 ml kg^−1, 1% HEC, 0.25% Tween-80, Antifoam) for four days. Terminal blood was drawn under general anaesthesia 24 h after the day-4 oral dose. Plasma samples were collected via the abdominal aorta into a premeasured anticoagulant BD Vacutainer used for blood collection (2.7 ml, buffered sodium citrate). The liver was flash frozen in liquid nitrogen. To measure plasminogen activity, 100 µl plasma per well was added to a 96-well plate (Corning) and the following were added to the indicated concentrations: 7.5 mM CaCl2 and 117 mM NaCl. Wells were mixed and warmed to 37 °C. Urokinase (Millipore) was added at 125 U per well and the plate was incubated at 37 °C for 4 min. The plasminogen substrate Chromogenix S-2251 (DiaPharma) was added to a concentration of 3.3 mM. The mixture was added and the plate was sealed and placed in a prewarmed plate reader, shaken, and the absorbance read every 30 s for 2 h. The maximum slope for each curve was determined and the percentage inhibition was calculated relative to untreated controls. Plasminogen protein was measured using ELISA kits for rat (Abcam ab157740) according to the manufacturer’s instructions. Plasminogen activity (percentage) and mass (µg ml^−1) in rat were analysed by ANOVA in JMP 16.1.0. The percentage reduction of plasminogen activity and mass for each treated group was compared with vehicle by Dunnett’s method.

Plg mRNA = test: Rat hepatic Plg mRNA after oral dosing; assay type: in vivo; conditions: rats, daily oral dosing
Method: Male Sprague Dawley rats (Charles River, average body weight 310 g, aged eight to nine weeks old) were housed in cages with a standard light cycle (12-h light, 12-h dark), at room temperature (22 ± 4 °C), with a relative humidity of 30–70%. Rats were identified by numbers on the cage cards. After arrival, rats were fed on a normal diet (Harlan Teklad diet 2014) and randomized to treatment groups (n = 5 per group) by baseline plasma plasminogen concentration and activity using a BRAT. LSN3441732 and LY3473329 were administered QD orally at three dose levels (3.7, 12.3 and 37 mg kg^−1; 3.2, 10.5 and 31.6 mg kg^−1 per dose, respectively) or vehicle (10 ml kg^−1, 1% HEC, 0.25% Tween-80, Antifoam) for four days. Terminal blood was drawn under general anaesthesia 24 h after the day-4 oral dose. Plasma samples were collected via the abdominal aorta into a premeasured anticoagulant BD Vacutainer used for blood collection (2.7 ml, buffered sodium citrate). […]
RNA was isolated from the liver using the PureLink RNA Mini Kit (Invitrogen) and quantified using the NanoDrop spectrophotometer (Thermo Fisher Scientific). […] Quantitative PCR was conducted using TaqMan reagents and primers (Plg Rn00585167_m1, Gapdh Rn99999916_s1). Relative quantitation was calculated using the comparative Ct method. Statistical significance was evaluated using JMP v.16.1.0 software (SAS).

[2] = 3441732 dose 3.7 mpk, 3.7 mg/kg
[3] = 3441732 dose 12.3 mpk, 12.3 mg/kg
[4] = 3473329 dose 3.2 mpk, 3.2 mg/kg
[5] = 3473329 dose 10.5 mpk, 10.5 mg/kg
[6] = 3473329 dose 31.6 mpk, 31.6 mg/kg

T2 sequence (Q01177 20-812 limits assumed): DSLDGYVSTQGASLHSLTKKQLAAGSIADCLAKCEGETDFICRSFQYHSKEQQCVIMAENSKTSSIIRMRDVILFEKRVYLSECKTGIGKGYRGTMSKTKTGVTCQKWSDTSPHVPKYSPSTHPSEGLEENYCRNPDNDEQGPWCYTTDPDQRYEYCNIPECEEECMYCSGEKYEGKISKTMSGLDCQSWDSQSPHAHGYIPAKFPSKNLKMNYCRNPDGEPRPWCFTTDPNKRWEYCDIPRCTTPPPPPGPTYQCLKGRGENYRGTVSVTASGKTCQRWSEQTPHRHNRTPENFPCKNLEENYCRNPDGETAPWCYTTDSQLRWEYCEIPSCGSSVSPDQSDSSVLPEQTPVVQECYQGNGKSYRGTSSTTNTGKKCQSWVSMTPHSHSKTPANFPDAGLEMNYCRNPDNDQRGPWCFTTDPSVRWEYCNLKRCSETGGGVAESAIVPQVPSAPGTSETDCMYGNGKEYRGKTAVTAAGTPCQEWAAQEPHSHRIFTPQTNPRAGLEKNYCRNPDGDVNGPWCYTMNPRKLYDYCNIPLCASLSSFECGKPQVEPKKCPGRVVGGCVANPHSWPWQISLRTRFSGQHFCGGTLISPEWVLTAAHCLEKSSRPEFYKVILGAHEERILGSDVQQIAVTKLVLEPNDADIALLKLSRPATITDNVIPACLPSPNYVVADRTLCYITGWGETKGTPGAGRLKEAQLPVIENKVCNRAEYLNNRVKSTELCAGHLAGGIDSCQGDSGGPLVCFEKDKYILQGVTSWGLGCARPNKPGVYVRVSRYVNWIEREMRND
T1 sequence (P08519 20-2040): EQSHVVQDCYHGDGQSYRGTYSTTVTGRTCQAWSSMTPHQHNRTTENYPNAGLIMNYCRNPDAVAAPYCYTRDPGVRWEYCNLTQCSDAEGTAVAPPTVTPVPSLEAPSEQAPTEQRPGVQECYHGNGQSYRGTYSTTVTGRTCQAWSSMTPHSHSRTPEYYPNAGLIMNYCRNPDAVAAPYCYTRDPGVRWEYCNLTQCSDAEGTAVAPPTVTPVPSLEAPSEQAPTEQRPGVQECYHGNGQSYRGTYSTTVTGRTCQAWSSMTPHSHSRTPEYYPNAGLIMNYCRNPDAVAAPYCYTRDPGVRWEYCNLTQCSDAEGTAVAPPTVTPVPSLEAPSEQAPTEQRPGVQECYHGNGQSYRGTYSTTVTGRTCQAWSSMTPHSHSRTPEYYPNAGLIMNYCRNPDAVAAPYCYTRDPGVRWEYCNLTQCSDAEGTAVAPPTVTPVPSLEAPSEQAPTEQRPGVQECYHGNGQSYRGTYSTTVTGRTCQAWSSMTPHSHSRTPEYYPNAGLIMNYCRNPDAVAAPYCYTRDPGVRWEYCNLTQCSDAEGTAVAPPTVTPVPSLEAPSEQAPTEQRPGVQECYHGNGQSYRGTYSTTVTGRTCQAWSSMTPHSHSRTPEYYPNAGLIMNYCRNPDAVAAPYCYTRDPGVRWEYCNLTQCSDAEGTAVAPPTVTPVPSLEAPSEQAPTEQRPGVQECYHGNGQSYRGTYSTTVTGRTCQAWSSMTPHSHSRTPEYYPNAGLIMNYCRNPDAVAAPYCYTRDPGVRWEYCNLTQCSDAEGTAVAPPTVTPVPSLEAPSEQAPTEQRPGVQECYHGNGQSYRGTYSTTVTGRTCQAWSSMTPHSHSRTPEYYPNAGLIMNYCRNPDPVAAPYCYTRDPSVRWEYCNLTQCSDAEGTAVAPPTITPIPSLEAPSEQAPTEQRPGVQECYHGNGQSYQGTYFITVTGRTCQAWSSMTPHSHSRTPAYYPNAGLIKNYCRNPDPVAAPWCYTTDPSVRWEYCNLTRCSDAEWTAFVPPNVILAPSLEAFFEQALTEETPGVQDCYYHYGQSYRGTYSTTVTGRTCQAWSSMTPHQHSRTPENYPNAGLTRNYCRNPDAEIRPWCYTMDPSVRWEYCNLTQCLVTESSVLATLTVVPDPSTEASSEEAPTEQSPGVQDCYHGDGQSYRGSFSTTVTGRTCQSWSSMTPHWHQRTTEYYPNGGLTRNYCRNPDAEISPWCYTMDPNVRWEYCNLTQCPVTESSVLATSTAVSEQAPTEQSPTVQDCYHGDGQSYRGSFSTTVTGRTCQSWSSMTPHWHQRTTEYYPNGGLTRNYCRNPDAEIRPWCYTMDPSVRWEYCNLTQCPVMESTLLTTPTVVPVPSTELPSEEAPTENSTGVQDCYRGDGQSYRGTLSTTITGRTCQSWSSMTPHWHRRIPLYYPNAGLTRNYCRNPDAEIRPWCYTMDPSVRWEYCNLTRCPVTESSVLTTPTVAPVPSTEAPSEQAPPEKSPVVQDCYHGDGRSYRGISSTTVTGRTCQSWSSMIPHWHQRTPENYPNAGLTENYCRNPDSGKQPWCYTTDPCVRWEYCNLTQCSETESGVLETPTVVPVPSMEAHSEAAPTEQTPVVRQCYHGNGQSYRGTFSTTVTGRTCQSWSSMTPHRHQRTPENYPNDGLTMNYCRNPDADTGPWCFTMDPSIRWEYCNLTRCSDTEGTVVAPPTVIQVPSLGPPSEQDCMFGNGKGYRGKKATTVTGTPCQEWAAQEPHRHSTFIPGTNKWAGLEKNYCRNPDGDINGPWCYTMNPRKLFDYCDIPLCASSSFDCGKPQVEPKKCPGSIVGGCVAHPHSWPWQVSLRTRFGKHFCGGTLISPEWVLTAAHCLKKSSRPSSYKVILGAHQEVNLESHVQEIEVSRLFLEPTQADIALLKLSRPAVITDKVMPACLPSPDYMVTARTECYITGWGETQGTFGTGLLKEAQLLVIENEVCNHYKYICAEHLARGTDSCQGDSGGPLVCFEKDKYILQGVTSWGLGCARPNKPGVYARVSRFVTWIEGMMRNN

Cl.Cl.O=C(Nc1cccc(C[C@H](C(=O)O)[C@H]2CCNC2)c1)Nc1cccc(C[C@H](C(=O)O)[C@H]2CCNC2)c1 [LSN3441732]
IC50 [1]: 0.18 nM | PLG mass, Plasminogen (mean of replicates) (plasminogen; [2]): 199.7 µg/mL and 188.1 µg/mL and 194.6 µg/mL and 164.2 µg/mL and 177.8 µg/mL | PLG mass, Replicate 1 (plasminogen; [2]): 193.976 µg/mL and 187.308 µg/mL and 191.488 µg/mL and 158.900 µg/mL and 169.900 µg/mL | PLG mass, Replicate 2 (plasminogen; [2]): 205.500 µg/mL and 188.992 µg/mL and 197.772 µg/mL and 169.500 µg/mL and 185.664 µg/mL | PLG mass, Plasminogen (mean of replicates) (plasminogen; [3]): 192.7 µg/mL and 158.1 µg/mL and 151.7 µg/mL and 134.6 µg/mL and 119.3 µg/mL | PLG mass, Replicate 1 (plasminogen; [3]): 187.144 µg/mL and 151.612 µg/mL and 145.376 µg/mL and 127.920 µg/mL and 115.472 µg/mL | PLG mass, Replicate 2 (plasminogen; [3]): 198.344 µg/mL and 164.496 µg/mL and 157.928 µg/mL and 141.248 µg/mL and 123.088 µg/mL | PLG mass, Plasminogen (mean of replicates) (plasminogen; 3441732 dose 37 mpk, 37 mg/kg): 113.7 µg/mL and 124.7 µg/mL and 116.9 µg/mL and 125.1 µg/mL and 127.8 µg/mL | PLG mass, Replicate 1 (plasminogen; 3441732 dose 37 mpk, 37 mg/kg): 111.012 µg/mL and 118.768 µg/mL and 109.952 µg/mL and 121.004 µg/mL and 125.228 µg/mL | PLG mass, Replicate 2 (plasminogen; 3441732 dose 37 mpk, 37 mg/kg): 116.416 µg/mL and 130.704 µg/mL and 123.756 µg/mL and 129.140 µg/mL and 130.432 µg/mL | plasma levels of plasminogen protein (plasminogen; rats, oral dosing): decreased in a dose-dependent manner | levels of hepatic Plg mRNA (Plg mRNA): unchanged

O=C(O)[C@@H](Cc1cccc(CN(Cc2cccc(C[C@H](C(=O)O)[C@H]3CCNC3)c2)Cc2cccc(C[C@H](C(=O)O)[C@H]3CCNC3)c2)c1)[C@H]1CCNC1 [LY3473329]
IC50 [1]: 0.09 nM | PLG mass, Plasminogen (mean of replicates) (plasminogen; [4]): 281.7 µg/mL and 301.7 µg/mL and 249.5 µg/mL and 274.1 µg/mL and 246.9 µg/mL | PLG mass, Replicate 1 (plasminogen; [4]): 275.600 µg/mL and 301.472 µg/mL and 251.100 µg/mL and 270.384 µg/mL and 245.604 µg/mL | PLG mass, Replicate 2 (plasminogen; [4]): 287.828 µg/mL and 301.932 µg/mL and 247.992 µg/mL and 277.820 µg/mL and 248.160 µg/mL | PLG mass, Plasminogen (mean of replicates) (plasminogen; [5]): 239.9 µg/mL and 236.1 µg/mL and 242.7 µg/mL and 225.5 µg/mL and 223.8 µg/mL | PLG mass, Replicate 1 (plasminogen; [5]): 241.392 µg/mL and 228.556 µg/mL and 235.352 µg/mL and 212.812 µg/mL and 213.952 µg/mL | PLG mass, Replicate 2 (plasminogen; [5]): 238.436 µg/mL and 243.736 µg/mL and 249.956 µg/mL and 238.240 µg/mL and 233.564 µg/mL | PLG mass, Plasminogen (mean of replicates) (plasminogen; [6]): 199.2 µg/mL and 187.7 µg/mL and 187.4 µg/mL and 229.5 µg/mL and 225.0 µg/mL | PLG mass, Replicate 1 (plasminogen; [6]): 197.560 µg/mL and 179.928 µg/mL and 183.640 µg/mL and 229.888 µg/mL and 216.732 µg/mL | PLG mass, Replicate 2 (plasminogen; [6]): 200.844 µg/mL and 195.380 µg/mL and 191.112 µg/mL and 229.028 µg/mL and 233.256 µg/mL
